{"source": "patent US7875638B2", "about": "“Synthesis of epothilones, intermediates thereto, analogues and uses thereof” (Sloan-Kettering Institute for Cancer Research, priority 2002, dated 2011)", "format_in_all_cases": "cell-based", "key": {"RPMI8226": {"test_system": "RPMI8226", "assay": "XTT cell growth inhibition, RPMI8226", "settings": "Homo sapiens, RPMI-8226; Myeloma; XTT tetrazonium assay; read-out: IC50 (nM), RPMI8226"}, "SKI-DLBCL": {"test_system": "SKI-DLBCL", "assay": "XTT cell growth inhibition, SKI-DLBCL", "settings": "Homo sapiens; Lymphoma; XTT tetrazonium assay"}, "HS-27A": {"test_system": "HS-27A", "assay": "XTT cell growth inhibition, HS-27A", "settings": "Homo sapiens, Marrow stroma, XTT tetrazonium assay, read-out: IC50 (nM), HS-27A"}, "HT-29": {"test_system": "HT-29", "assay": "XTT cell growth inhibition, HT-29", "settings": "Homo sapiens, HT-29; Colon Ca; XTT tetrazonium assay; read-out: IC50 (nM), HT-29"}, "HCT-116": {"test_system": "HCT-116", "assay": "XTT cell growth inhibition, HCT-116", "settings": "Homo sapiens, HCT-116; Colon Ca; XTT tetrazonium assay; read-out: IC50 (nM), HCT-116"}, "SKOV3": {"test_system": "SKOV3", "assay": "XTT cell growth inhibition, SKOV3", "settings": "Homo sapiens, SK-OV-3; Ovarian Ca; XTT tetrazonium assay; read-out: IC50 (nM), SKOV3"}, "Ovcar-3": {"test_system": "Ovcar-3", "assay": "XTT cell growth inhibition, Ovcar-3", "settings": "Homo sapiens, OVCAR-3; Ovarian Ca; XTT tetrazonium assay; read-out: IC50 (nM), Ovcar-3"}, "Ovcar-4": {"test_system": "Ovcar-4", "assay": "XTT cell growth inhibition, Ovcar-4", "settings": "Homo sapiens, OVCAR-4; Ovarian Ca; XTT tetrazonium assay; read-out: IC50 (nM), Ovcar-4"}, "[1]": {"test_system": "RPMI-8226 (human multiple myeloma cell line)", "assay": "Global gene expression (Affymetrix chip AU133 2.0)"}, "[2]": {"settings": "6 hr gene difference, Fludelone vs dEpoB treated cells"}}, "data": [{"molecule": "C/C(=C\\c1csc(C)n1)[C@@H]1C/C=C(/C(F)(F)F)C/C=C/[C@H](C)[C@H](O)[C@@H](C)C(=O)C(C)(C)[C@@H](O)CC(=O)O1", "note": "[Compound 29, 26-trifluoro-trans-9,10-dehydro-12,13-desoxyepothilone B]", "values": [{"measurement": "IC50", "setting": "RPMI8226", "result": "7.6 ± 1.2", "unit": "nM"}, {"measurement": "IC50", "setting": "SKI-DLBCL", "result": "60 ± 4.2", "unit": "nM"}, {"measurement": "IC50", "setting": "HS-27A", "result": "102 ± 8", "unit": "nM"}, {"measurement": "IC50", "setting": "HT-29", "result": "4 ± 1.7", "unit": "nM"}, {"measurement": "IC50", "setting": "HCT-116", "result": "3.6 ± 1.3", "unit": "nM"}, {"measurement": "IC50", "setting": "SKOV3", "result": "1.6 ± 0.5", "unit": "nM"}, {"measurement": "IC50", "setting": "Ovcar-3", "result": "1.1 ± 0.4", "unit": "nM"}, {"measurement": "IC50", "setting": "Ovcar-4", "result": "1.8 ± 0.7", "unit": "nM"}, {"measurement": "Fold change in expression, APP", "setting": "[1]; 6 h", "result": "+2.14 fold"}, {"measurement": "Fold change in expression, BASP1", "setting": "[1]; 6 h", "result": "+2.83 fold"}, {"measurement": "Fold change in expression, HIST1", "setting": "[1]; 6 h", "result": "−2.00", "unit": "fold"}, {"measurement": "Fold change in expression, HNRPD", "setting": "[1]; 6 h", "result": "−2.46", "unit": "fold"}, {"measurement": "Fold change in expression, JUN", "setting": "[1]; 6 h", "result": "+3.25 fold"}, {"measurement": "Fold change in expression, SKIL", "setting": "[1]; 6 h", "result": "+2.83 fold"}, {"measurement": "Fold change in expression, SUV39 H2", "setting": "[1]; 6 h", "result": "−2.00", "unit": "fold"}, {"measurement": "Fold change, AIM2", "setting": "[1]; 6 h", "result": "−2.64", "unit": "fold"}, {"measurement": "Fold change, BCL3", "setting": "[1]; 6 h", "result": "+3.25 fold"}, {"measurement": "Fold change, CA4", "setting": "[1]; 6 h", "result": "−2.14", "unit": "fold"}, {"measurement": "Fold change, HLA-II DPα", "setting": "[1]; 6 h", "result": "−3.73", "unit": "fold"}, {"measurement": "Fold change, Heme oxygenase", "setting": "[1]; 6 h", "result": "+2.30 fold"}, {"measurement": "Fold change, PTPL", "setting": "[1]; 6 h", "result": "−2.46", "unit": "fold"}, {"measurement": "Fold change, T RIM34", "setting": "[1]; 6 h", "result": "−5.66", "unit": "fold"}, {"measurement": "Fold change, TRIM22", "setting": "[1]; 6 h", "result": "−2.46", "unit": "fold"}, {"measurement": "Fold change, GIP3", "setting": "[1]; [2]", "result": "−6.06", "unit": "fold"}, {"measurement": "Fold change, IFI 27", "setting": "[1]; [2]", "result": "−7.46", "unit": "fold"}, {"measurement": "Fold change, IFTM1", "setting": "[1]; [2]", "result": "−4.00", "unit": "fold"}, {"measurement": "Fold change, MX1", "setting": "[1]; [2]", "result": "−2.00", "unit": "fold"}, {"measurement": "Fold change in expression, AIP1", "setting": "[1]; 18 h", "result": "+2.14 fold"}, {"measurement": "Fold change in expression, AKAP9", "setting": "[1]; 18 h", "result": "+2.00 fold"}, {"measurement": "Fold change in expression, APBB2", "setting": "[1]; 18 h", "result": "+2.00 fold"}, {"measurement": "Fold change in expression, APG16L", "setting": "[1]; 18 h", "result": "+2.00 fold"}, {"measurement": "Fold change in expression, APRIN", "setting": "[1]; 18 h", "result": "+2.00 fold"}, {"measurement": "Fold change in expression, BAX", "setting": "[1]; 18 h", "result": "+2.00 fold"}, {"measurement": "Fold change in expression, CCL3", "setting": "[1]; 18 h", "result": "+3.48 fold"}, {"measurement": "Fold change in expression, CCT8", "setting": "[1]; 18 h", "result": "+2.30 fold"}, {"measurement": "Fold change in expression, CD72", "setting": "[1]; 18 h", "result": "+2.30 fold"}, {"measurement": "Fold change in expression, CEB1", "setting": "[1]; 18 h", "result": "−2.30", "unit": "fold"}, {"measurement": "Fold change in expression, CLorf29", "setting": "[1]; 18 h", "result": "−6.06", "unit": "fold"}, {"measurement": "Fold change in expression, Cyclin E2", "setting": "[1]; 18 h", "result": "−2.64", "unit": "fold"}, {"measurement": "Fold change in expression, DNAJB1", "setting": "[1]; 18 h", "result": "+2.30 fold"}, {"measurement": "Fold change in expression, DUSP6", "setting": "[1]; 18 h", "result": "−2.14", "unit": "fold"}, {"measurement": "Fold change in expression, EIFA1", "setting": "[1]; 18 h", "result": "+2.30 fold"}, {"measurement": "Fold change in expression, ETS2", "setting": "[1]; 18 h", "result": "+2.46 fold"}, {"measurement": "Fold change in expression, F11", "setting": "[1]; 18 h", "result": "−4.00", "unit": "fold"}, {"measurement": "Fold change in expression, FBXO5", "setting": "[1]; 18 h", "result": "−2.30", "unit": "fold"}, {"measurement": "Fold change in expression, FLJ20045", "setting": "[1]; 18 h", "result": "−2.46", "unit": "fold"}, {"measurement": "Fold change in expression, FLJ20130", "setting": "[1]; 18 h", "result": "−5.66", "unit": "fold"}, {"measurement": "Fold change in expression, FLJ20241", "setting": "[1]; 18 h", "result": "+3.73 fold"}, {"measurement": "Fold change in expression, Fibrillin 2", "setting": "[1]; 18 h", "result": "+12.3 fold"}, {"measurement": "Fold change in expression, GA17", "setting": "[1]; 18 h", "result": "+2.64 fold"}, {"measurement": "Fold change in expression, GTF2H2", "setting": "[1]; 18 h", "result": "+3.03 fold"}, {"measurement": "Fold change in expression, HDAC9", "setting": "[1]; 18 h", "result": "−2.00", "unit": "fold"}, {"measurement": "Fold change in expression, HNRPD", "setting": "[1]; 18 h", "result": "−3.25", "unit": "fold"}, {"measurement": "Fold change in expression, HSPA1A", "setting": "[1]; 18 h", "result": "+2.14 fold"}, {"measurement": "Fold change in expression, HSPA1B", "setting": "[1]; 18 h", "result": "+2.00 fold"}, {"measurement": "Fold change in expression, JUN", "setting": "[1]; 18 h", "result": "+2.64 fold"}, {"measurement": "Fold change in expression, KIAA0191 protein", "setting": "[1]; 18 h", "result": "+2.14 fold"}, {"measurement": "Fold change in expression, KIAA1025 protein", "setting": "[1]; 18 h", "result": "+3.25 fold"}, {"measurement": "Fold change in expression, MADH1", "setting": "[1]; 18 h", "result": "+2.00 fold"}, {"measurement": "Fold change in expression, MARS", "setting": "[1]; 18 h", "result": "−2.00", "unit": "fold"}, {"measurement": "Fold change in expression, NRTN", "setting": "[1]; 18 h", "result": "−2.3", "unit": "fold"}, {"measurement": "Fold change in expression, PCNX", "setting": "[1]; 18 h", "result": "+3.48 fold"}, {"measurement": "Fold change in expression, PHC3", "setting": "[1]; 18 h", "result": "+2.83 fold"}, {"measurement": "Fold change in expression, PKD1", "setting": "[1]; 18 h", "result": "+7.46 fold"}, {"measurement": "Fold change in expression, POU4F1", "setting": "[1]; 18 h", "result": "−2.14", "unit": "fold"}, {"measurement": "Fold change in expression, PRKCBP1", "setting": "[1]; 18 h", "result": "+2.64 fold"}, {"measurement": "Fold change in expression, PRKDC", "setting": "[1]; 18 h", "result": "+21.11 fold"}, {"measurement": "Fold change in expression, REPS1", "setting": "[1]; 18 h", "result": "+9.85 fold"}, {"measurement": "Fold change in expression, RPL23", "setting": "[1]; 18 h", "result": "+2.14 fold"}, {"measurement": "Fold change in expression, SEC24D", "setting": "[1]; 18 h", "result": "+2.64 fold"}, {"measurement": "Fold change in expression, SEMA3D", "setting": "[1]; 18 h", "result": "+2.83 fold"}, {"measurement": "Fold change in expression, SERPINH1", "setting": "[1]; 18 h", "result": "+2.00 fold"}, {"measurement": "Fold change in expression, SLC13A1", "setting": "[1]; 18 h", "result": "+3.03 fold"}, {"measurement": "Fold change in expression, SMA3", "setting": "[1]; 18 h", "result": "+2.46 fold"}, {"measurement": "Fold change in expression, TCS2", "setting": "[1]; 18 h", "result": "+2.30 fold"}]}]}
